Measured values reported in BindingDB's records for patent US20250313563 (The Broad Institute, 2025).
Where “and” joins values, the source holds several entries; their conditions need not be identical. Equal entries are not always repeated.

Experiments:
[1] = target: Glycogen synthase kinase-3 alpha (Homo sapiens, UniProt P49840); assay: TR-FRET Assay
In short: (§1)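 Kinase activity, measured after a 30-minute compound preincubation, was stopped with EDTA and quantified by TR-FRET using a Tb-labelled pSer641 antibody paired with streptavidin-d2.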

[2] = target: Glycogen synthase kinase-3 beta (Homo sapiens, UniProt P49841); assay: TR-FRET Assay
Sequence of Glycogen synthase kinase-3 beta (P49841 whole entry): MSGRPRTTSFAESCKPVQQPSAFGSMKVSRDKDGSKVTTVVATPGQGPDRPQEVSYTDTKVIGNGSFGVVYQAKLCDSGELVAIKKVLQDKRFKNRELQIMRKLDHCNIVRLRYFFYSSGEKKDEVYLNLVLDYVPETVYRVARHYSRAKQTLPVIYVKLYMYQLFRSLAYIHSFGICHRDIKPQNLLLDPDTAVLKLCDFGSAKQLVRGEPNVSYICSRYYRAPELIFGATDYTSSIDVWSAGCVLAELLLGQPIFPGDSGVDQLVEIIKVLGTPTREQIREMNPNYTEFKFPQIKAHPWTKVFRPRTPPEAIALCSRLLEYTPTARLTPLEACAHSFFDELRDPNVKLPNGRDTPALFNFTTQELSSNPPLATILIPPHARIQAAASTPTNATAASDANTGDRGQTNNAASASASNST
In short: as §1

Sequence of Glycogen synthase kinase-3 alpha (P49840 whole entry): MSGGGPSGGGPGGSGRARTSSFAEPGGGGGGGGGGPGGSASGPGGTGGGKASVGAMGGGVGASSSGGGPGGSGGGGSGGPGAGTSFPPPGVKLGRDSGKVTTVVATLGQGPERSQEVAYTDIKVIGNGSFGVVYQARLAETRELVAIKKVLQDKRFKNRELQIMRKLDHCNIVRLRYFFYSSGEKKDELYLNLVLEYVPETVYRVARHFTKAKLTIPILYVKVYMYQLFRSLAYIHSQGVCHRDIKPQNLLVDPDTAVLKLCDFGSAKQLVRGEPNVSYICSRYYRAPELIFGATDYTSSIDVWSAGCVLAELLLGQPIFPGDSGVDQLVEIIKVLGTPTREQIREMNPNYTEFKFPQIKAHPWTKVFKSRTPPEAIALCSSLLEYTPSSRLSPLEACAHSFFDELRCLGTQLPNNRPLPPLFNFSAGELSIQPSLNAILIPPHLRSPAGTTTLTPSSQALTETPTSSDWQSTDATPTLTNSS

| SMILES | IC50 [1] | IC50 [2] |
| --- | --- | --- |
| CC[C@@]1(c2cccc(-c3cc(C)ncc3OC)c2)C2=CN=NC2NC2=C1C(=O)NC(C)(C)C2 (some centres not stated) [US20250313563, Compound 949512] | 1000 to 5000 nM | > 5000 nM |
| CC[C@]1(c2cccc(-c3cnn(Cc4cccc(C(F)(F)F)c4)c3)c2)C2=CN=NC2NC2=C1C(=O)NC(C)(C)C2 (some centres not stated) [US20250313563, Compound 949513] | > 5000 nM | > 5000 nM |
| CC[C@]1(c2cccc(-c3cnn(-c4cccnc4)c3)c2)C2=CN=NC2NC2=C1C(=O)NC(C)(C)C2 (some centres not stated) [US20250313563, Compound 949515] | > 5000 nM | > 5000 nM |
| CC[C@]1(c2cccc(-c3ccncc3C(F)(F)F)c2)C2=CN=NC2NC2=C1C(=O)NC(C)(C)C2 (some centres not stated) [US20250313563, Compound 949516] | 1000 to 5000 nM | > 5000 nM |
| CC[C@]1(c2cccc(-c3ccnc(C)c3)c2)C2=CN=NC2NC2=C1C(=O)NC1(CCC1)C2 (some centres not stated) [US20250313563, Compound 949517] | 1000 to 5000 nM | > 5000 nM |
| CC[C@]1(c2cccc(-c3ccnn3C3CC3(F)F)c2)C2=CN=NC2NC2=C1C(=O)NC(C)(C)C2 (some centres not stated) [US20250313563, Compound 949518] | 100 to 1000 nM | > 5000 nM |
| CC[C@]1(c2cccc(-c3cnn(-c4ccccc4)c3F)c2)C2=CN=NC2NC2=C1C(=O)NC(C)(C)C2 (some centres not stated) [US20250313563, Compound 949519] | > 5000 nM | > 5000 nM |
| CC[C@@]1(c2cccc(-c3ccnc(C)c3)c2)C2=CN=NC2NC2=C1C(=O)NC1(CCC1)C2 (some centres not stated) [US20250313563, Compound 949520] | < 100 nM | 100 to 1000 nM |
| CC[C@]1(c2cccc(C3CCC3)c2)C2=CN=NC2NC2=C1C(=O)CC(C)(C)C2 (some centres not stated) [US20250313563, Compound 949521] | < 100 nM and 100 to 1000 nM | < 100 nM and 1000 to 5000 nM |
| CC[C@]1(c2cccc(-c3cc(C)ncc3OC)c2)C2=CN=NC2NC2=C1C(=O)NC(C)(C)C2 (some centres not stated) [US20250313563, Compound 949522] | < 100 nM | 100 to 1000 nM |
| CC[C@]1(c2cccc(C(F)(F)F)c2)C2=CN=NC2NC2=C1C(=O)N(CCOC)CC2 (some centres not stated) [US20250313563, Compound 949599] | 100 to 1000 nM | 100 to 1000 nM |
| CC[C@@]1(c2cccc(C(F)(F)F)c2)C2=CN=NC2NC2=C1C(=O)N(CCOC)CC2 (some centres not stated) [US20250313563, Compound 949600] | > 5000 nM | > 5000 nM |
| CCC1(c2cccc(C(F)(F)F)c2)C2=C(N=NC2)NC2=C1C(=O)CC2 (configuration not stated) [US20250313563, Compound 949639] | 100 to 1000 nM | 100 to 1000 nM |
| CC1CCC12C1=C(N=NC1)NC1=C2C(=O)CC(C)(C)C1 (configuration not stated) [US20250313563, Compound 949640] | 100 to 1000 nM | 1000 to 5000 nM |
| CC[C@@]1(c2cccc(C(F)(F)F)c2)C2=CN=NC2NC2=C1C(=O)N(c1cn(C)nc1C)CC2 (some centres not stated) [US20250313563, Compound 949642] | 100 to 1000 nM | 1000 to 5000 nM |
| CC[C@]1(c2cccc(-c3ccncc3F)c2)C2=C(CC(C)(C)NC2=O)NC2N=NC(F)=C21 (some centres not stated) [US20250313563, Compound 949643] | > 5000 nM | > 5000 nM |
| CC[C@]1(c2cccc(-c3cc(C)ncc3F)c2)C2=C(CC(C)(C)NC2=O)NC2N=NC(C(F)(F)F)=C21 (some centres not stated) [US20250313563, Compound 949644] | 100 to 1000 nM | 1000 to 5000 nM |
| CC[C@@]1(c2cccc(C(C)C)c2)C2=C(CC(C)(C)NC2=O)NC2N=NC(C)=C21 (some centres not stated) [US20250313563, Compound 949646] | > 5000 nM | > 5000 nM |
| CC[C@]1(c2cccc(N(C)c3ncccn3)c2)C2=C(CC(C)(C)NC2=O)NC2N=NC(F)=C21 (some centres not stated) [US20250313563, Compound 949647] | 100 to 1000 nM | > 5000 nM |
| CC[C@@]1(c2cccc(N(C)c3ncccn3)c2)C2=C(CC(C)(C)NC2=O)NC2N=NC(F)=C21 (some centres not stated) [US20250313563, Compound 949648] | < 100 nM | < 100 nM and 1000 to 5000 nM |
| CC[C@]1(c2cccc(C(C)C)c2)C2=C(CC(C)(C)NC2=O)NC2N=NC(C)=C21 (some centres not stated) [US20250313563, Compound 949649] | < 100 nM and 100 to 1000 nM | < 100 nM and 1000 to 5000 nM |
| CC[C@@]1(c2cccc(-c3cc(C)ncc3F)c2)C2=C(CC(C)(C)NC2=O)NC2N=NC(C(F)(F)F)=C21 (some centres not stated) [US20250313563, Compound 949650] | < 100 nM and 100 to 1000 nM | < 100 nM and 1000 to 5000 nM |
| CC[C@@]1(c2cccc(C(F)(F)F)c2)C2=C(NC3=NN=CC31)c1ccccc1C2=O (some centres not stated) [US20250313563, Compound 949742] | 100 to 1000 nM | 100 to 1000 nM |

| SMILES | IC50 [1] | IC50 [2] |
| --- | --- | --- |
| CC[C@]1(c2cccc(C(F)(F)F)c2)C2=C(NC3=NN=CC31)c1ccccc1C2=O (some centres not stated) [US20250313563, Compound 949743] | < 100 nM | < 100 nM and 100 to 1000 nM |
| CCC1(c2cccc(C(C)C)c2)C2=C(CC(C)(C)NC2=O)NC2N=NC(C(F)(F)F)=C21 (configuration not stated) [US20250313563, Compound 949747] | < 100 nM | < 100 nM |
| CCC1(c2cccc(OC)c2)C2=C(CC(C)(C)NC2=O)NC2N=NC(C(F)(F)F)=C21 (configuration not stated) [US20250313563, Compound 949748] | < 100 nM | 100 to 1000 nM |
| CC[C@@]1(c2cccc(C(C)C)c2)C2=CN=NC2NC2=C1C(=O)NC(C)(C)C2 (some centres not stated) [US20250313563, Compound 949752] | > 5000 nM | > 5000 nM |
| CC[C@@]1(c2ccccc2)C2=CN=NC2NC2=C1C(=O)C[C@]1(CCN(C)C1=O)C2 (some centres not stated) [US20250313563, Compound 949753] | 1000 to 5000 nM | > 5000 nM |
| CC[C@]1(c2cccc(-c3ccncc3F)c2)C2=C(CC(C)(C)NC2=O)NC2N=NC(Cl)=C21 (some centres not stated) [US20250313563, Compound 949756] | > 5000 nM | > 5000 nM |
| CC[C@@]1(c2cccc(-c3ccncc3F)c2)C2=C(CC(C)(C)NC2=O)NC2N=NC(Cl)=C21 (some centres not stated) [US20250313563, Compound 949757] | < 100 nM and 100 to 1000 nM | < 100 nM and 1000 to 5000 nM |
| CC[C@]1(c2ccccc2)C2=CN=NC2NC2=C1C(=O)C[C@]1(CCN(C)C1=O)C2 (some centres not stated) [US20250313563, Compound 949760] | 100 to 1000 nM | > 5000 nM |
| CC[C@]1(c2cccc(C(C)C)c2)C2=CN=NC2NC2=C1C(=O)NC(C)(C)C2 (some centres not stated) [US20250313563, Compound 949761] | 100 to 1000 nM | 100 to 1000 nM |
| CCC1(c2cccc(Br)c2)C2=C(N=NC2)NC2=C1C(=O)C(C)(C)C2 (configuration not stated) [US20250313563, Compound 949805] | 100 to 1000 nM | 1000 to 5000 nM |
| CC[C@@]1(c2cccc(C(F)(F)F)c2)C2=CN=NC2NC2=C1C(=O)N(c1ccn(C)n1)CC2 (some centres not stated) [US20250313563, Compound 949836] | 1000 to 5000 nM | > 5000 nM |
| CCC1(c2cccc(-c3ccnc(C)c3)c2)C2=C(N=NC2)NC2=C1C(=O)C(C)(C)C2 (configuration not stated) [US20250313563, Compound 949840] | 100 to 1000 nM | 1000 to 5000 nM |
| CCn1cc(N2CCC3=C(C2=O)[C@](CC)(c2cccc(C(F)(F)F)c2)C2=CN=NC2N3)cn1 (some centres not stated) [US20250313563, Compound 949867] | < 100 nM | 100 to 1000 nM |
| CCn1cc(N2CCC3=C(C2=O)[C@](CC)(c2cccc(C(F)(F)F)c2)C2=CN=NC2N3)cn1 (some centres not stated) [US20250313563, Compound 949868] | 100 to 1000 nM | > 5000 nM |
| CC[C@]1(c2cccc(-c3cnn(C)c3)c2)C2=C(CC(C)(C)NC2=O)NC2N=NC(C(F)F)=C21 (some centres not stated) [US20250313563, Compound 949911] | 100 to 1000 nM | > 5000 nM |
| CC[C@]1(c2cccc(-c3cc(C)nnc3C)c2)C2=C(CC(C)(C)NC2=O)NC2N=NC(C(F)(F)F)=C21 (some centres not stated) [US20250313563, Compound 949917] | < 100 nM | < 100 nM |
| CC[C@@]1(c2cccc(-c3cnn(C)c3)c2)C2=C(CC(C)(C)NC2=O)NC2N=NC(C(F)F)=C21 (some centres not stated) [US20250313563, Compound 949919] | < 100 nM | < 100 nM and 100 to 1000 nM |
| CC[C@]1(c2cccc(-c3cn(C)nc3C)c2)C2=CN=NC2NC2=C1C(=O)NC1(CCC1)C2 (some centres not stated) [US20250313563, Compound 950055] | < 100 nM | < 100 nM and 100 to 1000 nM |
| CC[C@@]1(c2cccc(C3=C(C)SN(C)C3)c2)C2=CN=NC2NC2=C1C(=O)NC1(CCC1)C2 (some centres not stated) [US20250313563, Compound 950056] | 100 to 1000 nM | > 5000 nM |
| CC[C@@]1(c2cccc(-c3ccncc3C3CC3)c2)C2=CN=NC2NC2=C1C(=O)NC(C)(C)C2 (some centres not stated) [US20250313563, Compound 950059] | < 100 nM and 100 to 1000 nM | < 100 nM and 1000 to 5000 nM |
| CC[C@@]1(c2cccc(-c3cnn(C4CC4(F)F)c3)c2)C2=CN=NC2NC2=C1C(=O)NC(C)(C)C2 (some centres not stated) [US20250313563, Compound 950060] | < 100 nM | 100 to 1000 nM |
| CC[C@@]1(c2cccc(-c3cnn(C(C)C)c3F)c2)C2=CN=NC2NC2=C1C(=O)NC(C)(C)C2 (some centres not stated) [US20250313563, Compound 950061] | 100 to 1000 nM | > 5000 nM |
| CC[C@@]1(c2cccc(-c3c(C)c(C)nn3C)c2)C2=CN=NC2NC2=C1C(=O)NC(C)(C)C2 (some centres not stated) [US20250313563, Compound 950062] | < 100 nM | 100 to 1000 nM |
